Results published in US20250108038A1 (priority 2023, published 2025).
Read-outs that look alike come from different tables or passages of the source.

Assays:
[1] = target: MATE2-K (Homo sapiens, UniProt Q86VL8); test: Uptake transporter inhibition assay, MATE2-K (metformin)
[2] = target: T1, CYP2B6 (Homo sapiens, UniProt P20813); test: biochemical
T1 sequence (P20813 1-491): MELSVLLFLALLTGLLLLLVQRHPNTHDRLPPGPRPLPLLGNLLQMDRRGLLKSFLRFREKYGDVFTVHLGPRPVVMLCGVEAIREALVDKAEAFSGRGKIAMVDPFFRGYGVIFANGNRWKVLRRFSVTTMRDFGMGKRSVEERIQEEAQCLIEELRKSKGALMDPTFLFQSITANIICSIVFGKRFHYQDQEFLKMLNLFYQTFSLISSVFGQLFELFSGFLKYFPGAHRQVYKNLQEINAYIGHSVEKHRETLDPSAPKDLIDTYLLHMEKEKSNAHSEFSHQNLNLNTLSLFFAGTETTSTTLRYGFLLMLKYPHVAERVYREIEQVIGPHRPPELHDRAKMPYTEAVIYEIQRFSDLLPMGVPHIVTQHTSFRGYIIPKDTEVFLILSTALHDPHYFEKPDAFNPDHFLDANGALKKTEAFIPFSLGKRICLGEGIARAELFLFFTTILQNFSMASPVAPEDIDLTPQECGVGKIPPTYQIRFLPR

[3] = target: CYP2D6 (Homo sapiens, UniProt P10635); test: biochemical
[4] = test system: C57BL/6 mice; test: Tail Suspension Test; format: in vivo, mouse; details: for Dunnett's Multiple Comparison Test Mean Diff., immobility on the TST: percent immobility
From the text: The Tail Suspension Test is a mouse behavioral test useful for screening for potential antidepressant drugs. The tail suspension test is an experimental method used in scientific research to measure a state of being helpless in rodents, especially in mice. It is based on the observation that if a mouse is subjected to short term inescapable stress, then it will stop struggling. Immobility is quantified by measuring the amount of time lacking whole-body activity.
A cohort of 32 adult male mice was used for locomotor activity and a separate cohort of 40 male mice were used for tail suspension (C57BL/6, 7-8 weeks old; body weights 18-25 g, Charles River Laboratories). Upon arrival at the facility, animals were group-housed (5/cage) with access to food and water ad libitum. Animals were maintained on a 12/12-hour light/dark cycle in a temperature—(22±2° C.) and humidity—(approx. 50%) controlled room. Animals were numbered consecutively by tail ID marker in each home cage. Each home cage was identified by a colored ID card indicating the study number, sex, animal numbers and date of birth.
Animals (8/group) were injected (10 mL/kg, ip) 30 min prior to the TST. For locomotor activity monitoring, mice were injected (10 mL/kg, ip; around 12-1 pm) after a full 24 hr period of recordings were collected for baseline activity. For both locomotor activity recordings and TST, PV-03446 doses included 0.3, 1, 3, and 10 mg/kg.
Tail Suspension Test: A piezoelectric sensor operated by the SmartCage system was utilized and video recording was conducted for scoring. Once animals were acclimated to the testing room, the TST was initiated by placing the tail of the test mouse onto the piezoelectric sensor-board and hanging the mouse upside down. The recording period was initiated once the mouse was upside down and lasted for 6 min. At the end of the recording period, the mouse was removed from the recording device and returned to its home cage. The immobilized time, indicating depression-like behavior, was quantified using manual scoring of the video recording from 120 seconds to 360 seconds during the TST. The percent immobility time was calculated as (immobility time (seconds)/240 seconds)*100.
Group differences found to have normal distribution were evaluated using a 1-way ANOVA followed by a Dunnett's Multiple Comparison Test to compare all treatment groups to the vehicle control. Statistical significance was set at p≤0.05.

[5] = target: T2, CYP2C8 (Homo sapiens, UniProt P10632)
T2 sequence (P10632 1-490): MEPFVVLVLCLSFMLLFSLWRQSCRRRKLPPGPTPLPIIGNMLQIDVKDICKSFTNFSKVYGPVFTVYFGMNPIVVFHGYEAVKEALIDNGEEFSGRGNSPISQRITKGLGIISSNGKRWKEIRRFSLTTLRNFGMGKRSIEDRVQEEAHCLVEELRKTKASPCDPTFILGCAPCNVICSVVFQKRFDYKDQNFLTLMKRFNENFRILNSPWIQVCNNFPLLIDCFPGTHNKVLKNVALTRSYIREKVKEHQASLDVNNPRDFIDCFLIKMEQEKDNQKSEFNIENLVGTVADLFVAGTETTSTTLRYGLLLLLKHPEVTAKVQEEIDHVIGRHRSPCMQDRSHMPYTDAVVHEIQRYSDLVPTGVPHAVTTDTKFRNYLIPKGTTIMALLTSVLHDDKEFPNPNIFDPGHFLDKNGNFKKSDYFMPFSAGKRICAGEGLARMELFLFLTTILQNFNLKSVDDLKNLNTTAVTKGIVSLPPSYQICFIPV

[6] = target: CYP2C19 (Homo sapiens, UniProt P33261)
[7] = 0.04 μM nominal, IC50 determination
[8] = 0.12 μM nominal, IC50 determination
[9] = 1.11 μM nominal, IC50 determination
[10] = 10.00 μM nominal, IC50 determination
[11] = 30.00 μM nominal, IC50 determination
[12] = 0.14 μM nominal, 0.08 μM NSB corrected, follow-up assay
[13] = 1.24 μM nominal, 0.79 μM NSB corrected, follow-up assay
[14] = 10.00 μM nominal, 6.50 μM NSB corrected
[15] = 11.11 μM nominal, 6.11 μM NSB corrected, follow-up assay
[16] = 33.33 μM nominal, 20.33 μM NSB corrected, follow-up assay
[17] = 100.00 μM nominal, 67.00 μM NSB corrected
[18] = 100.00 μM nominal, […] NSB corrected, follow-up assay
[19] = […] nominal, 2.37 μM NSB corrected, follow-up assay

MATE2-K, sequence (Q86VL8 1-566 isoform Q86VL8-3): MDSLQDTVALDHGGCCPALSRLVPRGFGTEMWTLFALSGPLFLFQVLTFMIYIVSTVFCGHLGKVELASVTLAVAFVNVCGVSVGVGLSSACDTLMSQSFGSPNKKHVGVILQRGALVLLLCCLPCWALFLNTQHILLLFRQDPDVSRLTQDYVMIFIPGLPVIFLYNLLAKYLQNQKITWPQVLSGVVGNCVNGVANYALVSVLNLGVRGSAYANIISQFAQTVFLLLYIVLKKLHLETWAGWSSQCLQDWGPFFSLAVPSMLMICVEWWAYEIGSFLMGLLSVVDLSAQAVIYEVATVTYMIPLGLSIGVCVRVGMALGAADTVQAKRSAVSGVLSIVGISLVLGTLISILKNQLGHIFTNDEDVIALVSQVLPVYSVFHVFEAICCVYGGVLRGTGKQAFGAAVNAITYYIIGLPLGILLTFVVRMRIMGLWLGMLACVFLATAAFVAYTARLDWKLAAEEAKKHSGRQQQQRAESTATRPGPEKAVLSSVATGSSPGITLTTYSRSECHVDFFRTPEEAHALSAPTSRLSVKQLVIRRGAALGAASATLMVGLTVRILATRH
CYP2C19, sequence (P33261 whole entry): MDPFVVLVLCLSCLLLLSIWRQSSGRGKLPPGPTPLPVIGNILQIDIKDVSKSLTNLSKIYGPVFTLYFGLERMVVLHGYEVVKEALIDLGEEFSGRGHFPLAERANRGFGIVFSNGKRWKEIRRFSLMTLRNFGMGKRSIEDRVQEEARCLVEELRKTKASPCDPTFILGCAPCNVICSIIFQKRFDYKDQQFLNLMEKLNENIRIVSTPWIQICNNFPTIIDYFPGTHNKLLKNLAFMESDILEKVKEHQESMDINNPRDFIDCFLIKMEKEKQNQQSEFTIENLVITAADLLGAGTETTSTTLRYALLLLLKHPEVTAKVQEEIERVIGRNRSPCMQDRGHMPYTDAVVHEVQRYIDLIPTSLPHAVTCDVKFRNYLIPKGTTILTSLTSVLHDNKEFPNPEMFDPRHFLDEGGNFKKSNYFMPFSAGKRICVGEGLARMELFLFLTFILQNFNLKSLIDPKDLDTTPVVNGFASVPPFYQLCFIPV
CYP2D6, sequence (P10635 whole entry): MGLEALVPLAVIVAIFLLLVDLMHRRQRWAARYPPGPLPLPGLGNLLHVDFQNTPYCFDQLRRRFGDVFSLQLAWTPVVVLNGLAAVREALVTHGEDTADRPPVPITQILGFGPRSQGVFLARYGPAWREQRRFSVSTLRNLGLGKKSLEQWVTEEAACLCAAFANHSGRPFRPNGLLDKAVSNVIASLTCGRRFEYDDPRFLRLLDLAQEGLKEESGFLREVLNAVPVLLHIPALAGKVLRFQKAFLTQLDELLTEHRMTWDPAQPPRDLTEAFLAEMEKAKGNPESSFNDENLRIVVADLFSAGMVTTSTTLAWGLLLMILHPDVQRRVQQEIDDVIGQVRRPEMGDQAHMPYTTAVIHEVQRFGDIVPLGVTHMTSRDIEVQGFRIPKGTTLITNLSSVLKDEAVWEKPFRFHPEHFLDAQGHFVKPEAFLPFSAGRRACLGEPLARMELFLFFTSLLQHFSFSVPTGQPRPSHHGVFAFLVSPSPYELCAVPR

OC1(c2ccc(Cl)cc2)c2ccccc2C2=NCCN21 (stereo not drawn) [Compound A, 5-(4-chlorophenyl)-2,3-dihydroimidazo[1,2-b]isoindol-5-ol, reference compound]
IC50 [1]: 12.8 µM
Relative transporter specific accumulation [1, 7]: 90.25 ± 3.17 % of control
Transporter specific accumulation [1, 7]: 108.00 ± 2.98 cpm
Relative transporter specific accumulation [1, 8]: 96.94 ± 8.16 % of control
Transporter specific accumulation [1, 8]: 116.00 ± 9.43 cpm
Relative transporter specific accumulation [1, 9]: 89.69 ± 6.53 % of control
Transporter specific accumulation [1, 9]: 107.33 ± 7.45 cpm
Relative transporter specific accumulation ([1]; 3.00 μM nominal): 97.37 ± 11.23 % of control
Transporter specific accumulation ([1]; 3.00 μM nominal): 86.33 ± 7.06 cpm
Relative transporter specific accumulation [1, 10]: 51.81 ± 3.80 % of control
Transporter specific accumulation [1, 10]: 62.00 ± 4.35 cpm
Relative transporter specific accumulation ([1]; 30.00 μM nominal): 27.07 ± 4.56 % of control
Transporter specific accumulation ([1]; 30.00 μM nominal): 24.00 ± 3.54 cpm
Relative transporter specific accumulation [1, 11]: 20.61 ± 1.94 % of control
Transporter specific accumulation [1, 11]: 24.67 ± 2.26 cpm
inhibition at 10 µM ([1]; human, Maximum % inhibition, MATE2-K, HEK293 cells, metformin (10 μM), NIO: no inhibition observed): 79%
inhibition at 0.04 μM ([1]; human, Relative inhibition, 0.04 μM nominal, IC50 determination): 10%
inhibition at 0.12 μM ([1]; human, Relative inhibition, 0.12 μM nominal, IC50 determination): 3%
inhibition at 1.11 μM ([1]; human, Relative inhibition, 1.11 μM nominal, IC50 determination): 10%
inhibition at 3 μM ([1]; human, Relative inhibition, 3.00 μM nominal): 3%
inhibition at 10 µM ([1]; human, Relative inhibition, 10.00 μM nominal, IC50 determination): 48%
inhibition at 30 μM ([1]; human, Relative inhibition, 30.00 μM nominal): 73%
inhibition at 30 μM ([1]; human, Relative inhibition, 30.00 μM nominal, IC50 determination): 79%
IC50 [2]: 0.092 µM
IC50 [3]: 4.16 µM

Clc1ccc(C2(OCC3OCCO3)c3ccccc3C3=NCCN32)cc1 (stereo not drawn) [Compound I-19]
One-way analysis of variance F, immobility on the TST ([4]; 0.3, 1.0, 3.0, 10.0 mg/kg IP vs control, 5 groups): 4.71
immobility (%) ([4]; 0.3, 1.0, 3.0 and 10.0 mg/kg, IP, 30 min prior to TST): significant reduction in immobility (%) at all doses tested
decrease of immobility compared to vehicle ([4]; 0.3-10 mg/kg IP, depending on the dose): 26-38%
Dunnett's Multiple Comparison Test Significant? P < 0.05?, immobility on the TST ([4]; Control vs 0.3 mg/kg IP): Yes
Dunnett's Multiple Comparison Test q, immobility on the TST ([4]; Control vs 0.3 mg/kg IP): 2.592
Dunnett's Multiple Comparison Test Mean Diff., immobility on the TST ([4]; Control vs 0.3 mg/kg IP): 19.9
Dunnett's Multiple Comparison Test Significant? P < 0.05?, immobility on the TST ([4]; Control vs 1.0 mg/kg IP): Yes
Dunnett's Multiple Comparison Test q, immobility on the TST ([4]; Control vs 1.0 mg/kg IP): 3.739
Dunnett's Multiple Comparison Test Mean Diff., immobility on the TST ([4]; Control vs 1.0 mg/kg IP): 28.7
Dunnett's Multiple Comparison Test Significant? P < 0.05?, immobility on the TST ([4]; Control vs 3.0 mg/kg IP): Yes
Dunnett's Multiple Comparison Test q, immobility on the TST ([4]; Control vs 3.0 mg/kg IP): 3.773
Dunnett's Multiple Comparison Test Mean Diff., immobility on the TST ([4]; Control vs 3.0 mg/kg IP): 28.96
Dunnett's Multiple Comparison Test Significant? P < 0.05?, immobility on the TST ([4]; Control vs 10.0 mg/kg IP): Yes
Dunnett's Multiple Comparison Test q, immobility on the TST ([4]; Control vs 10.0 mg/kg IP): 2.626
Dunnett's Multiple Comparison Test Mean Diff., immobility on the TST ([4]; Control vs 10.0 mg/kg IP): 20.16
Relative inhibition [1, 12]: 5%
Relative transporter specific accumulation [1, 12]: 95.22 ± 8.50 % of control
Transporter specific accumulation [1, 12]: 99.67 ± 6.15 cpm
Relative inhibition [1, 13]: 0%
Relative transporter specific accumulation [1, 13]: 100.32 ± 8.62 % of control
Transporter specific accumulation [1, 13]: 105.00 ± 5.96 cpm
Relative inhibition [1, 14]: 14%
Relative transporter specific accumulation [1, 14]: 85.87 ± 5.57 % of control
Transporter specific accumulation [1, 14]: 154.00 ± 7.39 cpm
Relative inhibition [1, 15]: 15%
Relative transporter specific accumulation [1, 15]: 84.71 ± 5.61 % of control
Transporter specific accumulation [1, 15]: 88.67 ± 1.33 cpm
Relative inhibition [1, 16]: 44%
Relative transporter specific accumulation [1, 16]: 56.05 ± 3.67 % of control
Transporter specific accumulation [1, 16]: 58.67 ± 0.67 cpm
Relative inhibition [1, 17]: 93%
Relative transporter specific accumulation [1, 17]: 7.06 ± 5.01 % of control
Transporter specific accumulation [1, 17]: 12.67 ± 8.97 cpm
Relative inhibition [1, 18]: 86%
Relative transporter specific accumulation [1, 18]: 14.01 ± 1.15 % of control
Transporter specific accumulation [1, 18]: 14.67 ± 0.75 cpm
maximum inhibition of MATE2-K-mediated metformin accumulation ([1]; 2-concentration assay, Compound I-19 100 μM, Compound A 30 μM, Compound B 80 μM): 93%
Maximum % inhibition ([1]; MATE2-K, HEK293 cells, metformin (10 μM), NIO: no inhibition observed): 86%
Relative inhibition [1, 19]: 1%
Relative transporter specific accumulation [1, 19]: 99.36 ± 6.66 % of control
Transporter specific accumulation [1, 19]: 104.00 ± 1.89 cpm
maximum inhibition of MATE2-K-mediated metformin accumulation ([1]; follow-up assay): 86%
IC50 ([1]; follow-up assay, NSB-corrected concentrations for Compound I-19): 36.6 µM
Inhibition at Highest Test Article Concentration ([5]; 2C8, Amodiaquine, at 50 μM): 73.7 at 50 μM %
IC50 ([5]; microsomes): 2.38 µM
Inhibition at Highest Test Article Concentration ([6]; 2C19, Mephenytoin, at 50 μM): 83.2 at 50 μM %
IC50 ([6]; microsomes): 17.3 µM
